# Activity calls are given as the source filed them. The rule behind the calls is not given here.
# How the values were obtained:
# Plasmodium berghei [1] = test: Antimalarial activity as survival time against Plasmodium berghei KBG173 infected CD1 mice (Mus musculus) at 160 mg/kg/day subcutaneous dose; assay type: functional
# Plasmodium berghei [2] = test: Antimalarial activity as survival time against Plasmodium berghei KBG173 infected CD1 mice (Mus musculus) at 80 mg/kg/day subcutaneous dose; assay type: functional
# Plasmodium berghei [3] = test: Antimalarial activity against Plasmodium berghei KBG173 infected CD1 mice (Mus musculus) assessed as survival time at 80 mg/kg/day, subcutaneously administered on day 3 twice a day; assay type: functional; conditions: route subcutaneous
# Plasmodium berghei [4] = test: Antimalarial activity as reduced parasitaemia at day 17 against Plasmodium berghei KBG173 infected CD1 mice (Mus musculus) at 320 mg/kg/day peroral dose; assay type: functional; design: scale not given: the % may be the effect or the level left; conditions: route oral
# Plasmodium berghei [5] = test: Antimalarial activity as reduced parasitaemia at day 20 against Plasmodium berghei KBG173 infected CD1 mice (Mus musculus) at 320 mg/kg/day peroral dose; assay type: functional; design: scale not given: the % may be the effect or the level left; conditions: route oral
# Plasmodium berghei [6] = test: Antimalarial activity as reduced parasitaemia after 24 days against Plasmodium berghei KBG173 infected CD1 mice (Mus musculus) at 320 mg/kg/day peroral dose; assay type: functional; design: scale not given: the % may be the effect or the level left; conditions: route oral
# Plasmodium berghei [7] = test: Antimalarial activity as reduced parasitaemia after 27 days against Plasmodium berghei KBG173 infected CD1 mice (Mus musculus) at 320 mg/kg/day peroral dose; assay type: functional; design: scale not given: the % may be the effect or the level left; conditions: route oral
# Plasmodium berghei [8] = test: Antimalarial activity as reduced parasitaemia after 31 days against Plasmodium berghei KBG173 infected CD1 mice (Mus musculus) at 320 mg/kg/day peroral dose; assay type: functional; design: scale not given: the % may be the effect or the level left; conditions: route oral
# Plasmodium berghei [9] = test: Antimalarial activity as reduced parasitaemia after 10 days against Plasmodium berghei KBG173 infected CD1 mice (Mus musculus) at 40 mg/kg/day subcutaneous dose; assay type: functional; design: scale not given: the % may be the effect or the level left
# Plasmodium berghei [10] = test: Antimalarial activity as reduced parasitaemia after 13 days against Plasmodium berghei KBG173 infected CD1 mice (Mus musculus) at 40 mg/kg/day subcutaneous dose; assay type: functional; design: scale not given: the % may be the effect or the level left
# Plasmodium berghei [11] = test: Antimalarial activity as reduced parasitaemia after 17 days against Plasmodium berghei KBG173 infected CD1 mice (Mus musculus) at 40 mg/kg/day subcutaneous dose; assay type: functional; design: scale not given: the % may be the effect or the level left
# Plasmodium berghei [12] = test: Antimalarial activity as reduced parasitaemia after 20 days against Plasmodium berghei KBG173 infected CD1 mice (Mus musculus) at 40 mg/kg/day subcutaneous dose; assay type: functional; design: scale not given: the % may be the effect or the level left
# Plasmodium berghei [13] = test: Antimalarial activity as reduced parasitaemia after 24 days against Plasmodium berghei KBG173 infected CD1 mice (Mus musculus) at 40 mg/kg/day subcutaneous dose; assay type: functional; design: scale not given: the % may be the effect or the level left
# Plasmodium berghei [14] = test: Antimalarial activity as reduced parasitaemia after 27 days against Plasmodium berghei KBG173 infected CD1 mice (Mus musculus) at 40 mg/kg/day subcutaneous dose; assay type: functional; design: scale not given: the % may be the effect or the level left
# Plasmodium berghei [15] = test: Antimalarial activity as reduced parasitaemia after 31 days against Plasmodium berghei KBG173 infected CD1 mice (Mus musculus) at 40 mg/kg/day subcutaneous dose; assay type: functional; design: scale not given: the % may be the effect or the level left
# Plasmodium berghei [16] = test: Antimalarial activity as reduced parasitaemia after 10 days against Plasmodium berghei KBG173 infected CD1 mice (Mus musculus) at 20 mg/kg/day subcutaneous dose; assay type: functional; design: scale not given: the % may be the effect or the level left
# Plasmodium berghei [17] = test: Antimalarial activity as reduced parasitaemia after 13 days against Plasmodium berghei KBG173 infected CD1 mice (Mus musculus) at 20 mg/kg/day subcutaneous dose; assay type: functional; design: scale not given: the % may be the effect or the level left
# Plasmodium berghei [18] = test: Antimalarial activity as reduced parasitaemia after 17 days against Plasmodium berghei KBG173 infected CD1 mice (Mus musculus) at 20 mg/kg/day subcutaneous dose; assay type: functional; design: scale not given: the % may be the effect or the level left
# [19] = Cytotoxicity against human NCI60 cells; assay type: functional
# Plasmodium berghei [20] = test: Antimalarial activity as reduced parasitaemia at day 6 in Plasmodium berghei KBG173 infected CD1 mice (Mus musculus) at 20 mg/kg/day subcutaneous dose; assay type: functional; design: scale not given: the % may be the effect or the level left
# Plasmodium falciparum [21] = test: Relative activity against Plasmodium falciparum W2 as ratio of IC90 to IC50; assay type: functional
# [22] = Metabolic stability in human liver microsomes assessed as half life at 10 uM; assay type: ADME, Microsome
# [23] = Metabolic stability in mouse liver microsomes assessed as half life at 10 uM; assay type: ADME, Microsome
# Plasmodium berghei [24] = test: Antimalarial activity as parasite-free survivors at day 31 of Plasmodium berghei KBG173 infected CD1 mice (Mus musculus) at 20 mg/kg/day peroral dose; assay type: functional, organism-based
# Plasmodium berghei [25] = test: Antimalarial activity as parasite-free survivors at day 31 of Plasmodium berghei KBG173 infected CD1 mice (Mus musculus) at 160 mg/kg/day subcutaneous dose; assay type: functional, organism-based
# Plasmodium berghei [26] = test: Antimalarial activity as parasite-free survivors at day 31 of Plasmodium berghei KBG173 infected CD1 mice (Mus musculus) at 20 mg/kg/day subcutaneous dose; assay type: functional, organism-based
# Plasmodium berghei [27] = test: Antimalarial activity as survival time in Plasmodium berghei KBG173 infected CD1 mice (Mus musculus) at 320 mg/kg/day peroral dose; assay type: functional; conditions: route oral
# Plasmodium berghei [28] = test: Antimalarial activity as survival time against Plasmodium berghei KBG173 infected CD1 mice (Mus musculus) at 80 mg/kg/day peroral dose 3 - 5 days post infection; assay type: functional; conditions: route oral
# Plasmodium berghei [29] = test: Antimalarial activity as survival time in Plasmodium berghei KBG173 infected CD1 mice (Mus musculus) at 20 mg/kg/day peroral dose; assay type: functional; conditions: route oral
# Plasmodium falciparum [30] = test: microbe, parasite or virus in culture; conditions: TM91C235
# Description: Antimalarial activity against mefloquine, chloroquine and quinine-resistant Plasmodium falciparum TM91C235
# Plasmodium falciparum [31] = test: microbe, parasite or virus in culture; conditions: D6
# Description: Antimalarial activity against chloroquine and pyrimethamine-sensitive Plasmodium falciparum D6
# Plasmodium falciparum [32] = test: microbe, parasite or virus in culture; conditions: W2
# Description: Antimalarial activity against chloroquine and pyrimethamine-resistant Plasmodium falciparum W2
# Plasmodium falciparum [33] = test: microbe, parasite or virus in culture; conditions: RCS
# Description: Antimalarial activity against chloroquine-resistant, mefloquine-sensitive Plasmodium falciparum RCS
# Plasmodium falciparum [34] = test: Relative activity against Plasmodium falciparum TM91C235 as fold-lower IC90/IC50 ratio relative to mefloquine
structure (smiles),measurement,setting,value
CC(=O)O[C@H]1C[C@H]2[C@@H]([C@H](OC(C)=O)C[C@@H]3CC4(CC[C@@]32C)OOC(C)(C)OO4)[C@@H]2CC[C@H]([C@H](C)CCC(=O)NCCN(C)C)[C@@]12C,Survival,Plasmodium berghei [1],31 days
same,Survival,Plasmodium berghei [2],25 days
same,Survival,Plasmodium berghei [3],16 days
same,Activity,Plasmodium berghei [4],2.36%
same,Activity,Plasmodium berghei [5],1.9%
same,Activity,Plasmodium berghei [6],1.4%
same,Activity,Plasmodium berghei [7],0%
same,Activity,Plasmodium berghei [8],0%
same,Activity,Plasmodium berghei [9],0%
same,Activity,Plasmodium berghei [10],0.004%
same,Activity,Plasmodium berghei [11],15.48%
same,Activity,Plasmodium berghei [12],3.9%
same,Activity,Plasmodium berghei [13],12.53%
same,Activity,Plasmodium berghei [14],0%
same,Activity,Plasmodium berghei [15],0%
same,Activity,Plasmodium berghei [16],0.032%
same,Activity,Plasmodium berghei [17],8.72%
same,Activity,Plasmodium berghei [18],26.8%
same,GI50,[19],3390 nM
same,LC50,[19],22400 nM
same,TGI,[19],10200 nM
same,Activity,Plasmodium berghei [20],0.002%
same,Ratio,Plasmodium falciparum [21],1.71
same,half-life at 10 µM,[22],> 60 min
same,half-life at 10 µM,[23],> 60 min
same,Activity,Plasmodium berghei [24],inactive
same,Activity,Plasmodium berghei [25],Active
same,Activity,Plasmodium berghei [26],inactive
same,Survival,Plasmodium berghei [27],29 days
same,Survival,Plasmodium berghei [28],14 days
same,Survival,Plasmodium berghei [29],8 days
same,IC50,Plasmodium falciparum [30],7.16 nM
same,IC90,Plasmodium falciparum [30],19.8 nM
same,IC50,Plasmodium falciparum [31],11.6 nM
same,IC90,Plasmodium falciparum [31],26.2 nM
same,IC50,Plasmodium falciparum [32],9.79 nM
same,IC90,Plasmodium falciparum [32],16.8 nM
COC(=O)CNC(=O)CC[C@@H](C)[C@H]1CC[C@H]2[C@@H]3[C@H](OC(C)=O)C[C@@H]4CC5(CC[C@]4(C)[C@H]3C[C@H](OC(C)=O)[C@]12C)OOC(C)(C)OO5,GI50,[19],8510 nM
same,LC50,[19],77600 nM
same,TGI,[19],33900 nM
same,half-life at 10 µM,[22],70 min
same,half-life at 10 µM,[23],32 min
same,IC50,Plasmodium falciparum [31],14.3 nM
same,IC50,Plasmodium falciparum [32],5.98 nM
CC(=O)O[C@H]1C[C@H]2[C@@H]([C@H](OC(C)=O)C[C@@H]3CC4(CC[C@@]32C)OOC(C)(C)OO4)[C@@H]2CC[C@H]([C@H](C)CCC(=O)Nc3ccccc3)[C@@]12C,half-life at 10 µM,[22],19 min
same,half-life at 10 µM,[23],16 min
same,Survival,Plasmodium berghei [27],23 days
same,Survival,Plasmodium berghei [28],25 days
same,Survival,Plasmodium berghei [29],23 days
same,IC50,Plasmodium falciparum [33],1.89 nM
same,IC90,Plasmodium falciparum [33],4.45 nM
same,IC50,Plasmodium falciparum [30],15.8 nM
same,IC90,Plasmodium falciparum [30],20.9 nM
same,IC50,Plasmodium falciparum [31],6.97 nM
same,IC90,Plasmodium falciparum [31],20.8 nM
same,IC50,Plasmodium falciparum [32],5.02 nM
same,IC90,Plasmodium falciparum [32],14.3 nM
same,fold-lower IC90/IC50 ratio vs mefloquine,Plasmodium falciparum [34],3
C[C@@H]1CC[C@H]2[C@@H](C)C(=O)O[C@@H]3O[C@@]4(C)CC[C@@H]1[C@]32OO4 [ARTEMISININ],IC90,Plasmodium falciparum [33],13 nM
same,IC90,Plasmodium falciparum [30],13 nM
same,IC50,Plasmodium falciparum [31],9 nM
same,IC90,Plasmodium falciparum [31],12.8 nM
same,IC50,Plasmodium falciparum [32],6.7 nM
same,IC90,Plasmodium falciparum [32],11.5 nM
CNC(=O)CC[C@@H](C)[C@H]1CC[C@H]2[C@@H]3[C@H](OC(C)=O)C[C@@H]4CC5(CC[C@]4(C)[C@H]3C[C@H](OC(C)=O)[C@]12C)OOC(C)(C)OO5,GI50,[19],4470 nM
same,LC50,[19],47900 nM
same,TGI,[19],18200 nM
same,half-life at 10 µM,[22],> 60 min
same,half-life at 10 µM,[23],> 60 min
same,IC50,Plasmodium falciparum [33],11.6 nM
same,IC90,Plasmodium falciparum [33],22.3 nM
same,IC50,Plasmodium falciparum [30],31.3 nM
same,IC90,Plasmodium falciparum [30],74.8 nM
same,IC50,Plasmodium falciparum [31],46.9 nM
same,IC90,Plasmodium falciparum [31],78.3 nM
same,IC50,Plasmodium falciparum [32],18.1 nM
same,IC90,Plasmodium falciparum [32],20.7 nM
CCN(CC)CCCC(C)Nc1ccnc2cc(Cl)ccc12 (stereo not given) [CHLOROQUINE],IC90,Plasmodium falciparum [33],397 nM
same,IC90,Plasmodium falciparum [31],17.6 nM
CCCNC(=O)CC[C@@H](C)[C@H]1CC[C@H]2[C@@H]3[C@H](OC(C)=O)C[C@@H]4CC5(CC[C@]4(C)[C@H]3C[C@H](OC(C)=O)[C@]12C)OOC(C)(C)OO5,half-life at 10 µM,[22],24 min
same,half-life at 10 µM,[23],25 min
same,IC50,Plasmodium falciparum [31],7.4 nM
same,IC90,Plasmodium falciparum [31],16.2 nM
same,IC50,Plasmodium falciparum [32],18.1 nM
same,IC90,Plasmodium falciparum [32],29.2 nM
